This is an account of results in patent publication US20110021532A1, “NOVEL SUBSTITUTED HETEROAROMATIC COMPOUNDS AS INHIBITORS OF STEAROYL-COENZYME A DELTA-9 DESATURASE” (Merck Frosst Canada Ltd., priority 2008, published 2011).

This assay addresses T1, human SCD1 (hSCD-1) (Homo sapiens, UniProt O00767).
T1 construct: made in house; host or cells: baculovirus/Sf9
T1 sequence (O00767 1-359): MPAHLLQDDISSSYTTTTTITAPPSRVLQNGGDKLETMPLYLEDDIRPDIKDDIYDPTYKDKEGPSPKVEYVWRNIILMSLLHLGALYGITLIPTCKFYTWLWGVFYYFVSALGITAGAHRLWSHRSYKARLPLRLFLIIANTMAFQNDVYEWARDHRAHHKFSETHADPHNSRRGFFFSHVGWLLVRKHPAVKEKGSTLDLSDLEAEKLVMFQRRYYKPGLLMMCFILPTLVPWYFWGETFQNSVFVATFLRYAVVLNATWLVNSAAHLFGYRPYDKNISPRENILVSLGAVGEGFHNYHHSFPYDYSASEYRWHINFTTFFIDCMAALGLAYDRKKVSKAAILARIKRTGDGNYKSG
Briefly: SCD enzyme activity assay, reconstituted human SCD1 (hSCD-1). Type of assay: biochemical. Conditions: human SCD1, conversion of [3H]-stearoyl-CoA. As for the experimental part: The potency of compounds of formula I against the stearoyl-CoA desaturase was determined by measuring the conversion of radiolabeled stearoyl-CoA to oleoyl-CoA using rat liver microsome or human SCD1 (hSCD-1) following previously published procedures with some modifications (Joshi, et al., J. Lipid Res., 18: 32-36 (1977); Talmo, et al., Anal. Biochem, 29: 300-304 (1969)). Liver microsome was prepared from male Wistar or Sprague Dawley rats on a high carbohydrate diet for 3 days (LabDiet #5803, Purina). The livers were homogenized (1:10 w/v) in a buffer containing 250 mM sucrose, 1 mM EDTA, 5 mM DTT and 50 mM Tris-HCl (pH 7.5). After a 100,000×g centrifugation for 60 min, the liver microsome pellet was suspended in a buffer containing 100 mM sodium phosphate, 20% glycerol, 2 mM DTT, and stored at −78° C. Human SCD1 desaturase system was reconstituted using human SCD1 from a baculovirus/Sf9 expression system, cytochrome B5 and cytochrome B5 reductase. Typically, test compound in 2 μL DMSO was incubated for 15 min at room temperature with 180 μL of the SCD enzyme in a buffer containing 100 mM Tris-HCl (pH 7.5), ATP (5 mM), Coenzyme-A (0.1 mM), Triton X-100 (0.5 mM) and NADH (2 mM). The reaction was initiated by the addition of 20 μL of [^3H]-stearoyl-CoA (final concentration=2 μM, radioactivity concentration=1 μCi/mL). After 10 min, the reaction mixture (80 μL) was mixed with a calcium chloride/charcoal aqueous suspension (100 μL charcoal (10% w/v) plus 25 μL CaCl2 (2N). After centrifugation to precipitate the radioactive fatty acid species, tritiated water released from 9,10-[^3H]-stearoyl-CoA by the SCD enzyme was quantified on a scintillation counter.
Usually IC50 stands for the midpoint of a concentration-inhibition curve. A lower IC50 goes with higher potency. As for `CS(=O)(=O)c1cnc2[nH]c(-c3ccc(-c4ccccc4F)cc3)nc2c1`, inhibition was half-maximal at 113 nM (IC50).

Regarding `CS(=O)(=O)c1ccc2nc(-c3ccc(-c4cccc(F)c4)cc3)[nH]c2c1`, 26 nM corresponded to half-maximal inhibition (IC50).

The molecule `CS(=O)(=O)c1ccn2cc(-c3ccc(-c4cccc(Cl)c4)cc3)nc2c1` displayed an IC50 of 13 nM.

`CS(=O)(=O)c1ccc2nc(-c3ccc(-c4ccccc4F)nc3)[nH]c2c1` returned a half-inhibitory concentration (IC50) of 27 nM.

In turn, `CS(=O)(=O)c1ccc2[nH]c(-c3ccc(-c4cccs4)cc3)nc2c1` yielded an IC50 of 231 nM.
